System: CYP1B1
Assay: Cell-based CYP1B1 enzyme activity assay (Luciferin-CEE luminescence, normalized to genomic DNA) in 10F-HDF spheroid-scaffold culture
Conditions: addition to the spheroid-scaffold culture of 10F-HDFs (GCH tri-copolymer scaffold); FIG. 5B

induction of CYP1B1 activities: did not induce
SMILES: COc1ccc2[nH]c([S+]([O-])Cc3ncc(C)c(OC)c3C)nc2c1 (stereo not shown) [omeprazole]

Source: US20140106356A1, “KIT FOR DRUG METABOLISM DETERMINATION AND TOXICITY PREDICTION” (NATIONAL TAIWAN UNIVERSITY, priority 2012, published 2014)
